Measurements: US11472807B2, “Purine derivatives for use as medicament and for use in treating neurodegenerative or neuro-inflammatory disorders” (COMMISSARIAT À L'ENERGIE ATOMIQUE ET AUX ENERGIES …, priority 2017, dated 2022)

Columns and labels:
PSD95 = PSD95 mRNA in OHSC (RT-qPCR); format: cell-based; conditions: OHSCs from WT mice, 50 μM, 10 days
Procedure: FIG. 15. Plots illustrating the effect of Aftin-5 on relative mRNA expression levels of Long Term Potentialisation (LTP) biomarkers, i.e CREB (A), PSD95 (B) and BDNF (C) in C57B16J OHSC mice treated chronically with Aftin-5. OHSC culture media of OHSC were replaced by incubation medium containing Aftin-5 (50 μM; A50) or vehicle (0.1% DMSO; Veh). 10 days later, total mRNA in lysate was isolated and purified, cDNAs were then synthesized from […] of total mRNA. cDNAs were amplified by quantitative RT-PCR and the relative expression of specific genes was normalized to the housekeeping gene HPRT1 (2^—ΔCt). […] Data expressed as means+/−SEM from q=3 independent experiments with n=4-6 inserts/condition and 10 slices/insert. […]
The impact of Aftin-5 on gene expression of different biomarkers was determined by measuring mRNA levels of selected BDNF, CREB, PS95, INS Receptor/IGF-1 receptor, IL-1β, IL-6 in OHSC treated chronically with Aftin-5 or in a total brain from mice exposed to Aftin-5 at either 8 or 30 mg/Kg. […] RNA concentration was measured spectrophotometrically at 260 nm in a NanoDrop 2000c (Thermo Scientific, Villebon-sur-Yvette, France) (sample A260 nm/A280 nm ratios over 1.8 indicated reduced genomic DNA contamination). cDNAs were synthesized from 0.5 μg of total RNA with RT^2 First Strand kit (Qiagen, Courtaboeuf, France) according to the manufacturer's protocol and stored at −80° C. […]

[1] = test system: TNF-α, IL-1β and IL-6 mRNA; assay: Cytokine mRNA in OHSC from transgenic 3×Tg-AD mice (RT-qPCR); format: cell-based, transgenic Tau mice (3×Tg-AD); conditions: OHSC from transgenic mice overexpressing P-Tau, 50-150 μM, 10 days, vs vehicle
Procedure: FIG. 11. Plots illustrating the effect of Aftin-5 mediated attenuation of TNF-α (A) and IL-1β (B) and IL-6 (C) in organotypic hippocampal slice cultures from wild type mice (C57BI/6J) and transgenic Tau mice (3×Tg-AD). 3 Tg organotypic hippocampal slice cultures media were replaced by incubation medium containing Aftin-5 at 50 μM (A50), 100 μM (A100) and 150 μM (A150) or vehicle (0.1% DMSO; Veh). After chronic treatment (10 days) total mRNA in lysate was isolated and purified, cDNAs were then synthesized from […] of total mRNA. cDNAs were amplified by quantitative RT-PCR and the relative expression of specific genes was normalized to the housekeeping gene HPRT1 (2^−ΔCt). […] Data expressed as means+/−SEM (n=2-6 wells/condition) from q=2 independent experiments with n=2-6 inserts/conditions and 10 slices/insert. […]
The impact of Aftin-5 on gene expression of different biomarkers was determined by measuring mRNA levels of selected BDNF, CREB, PS95, INS Receptor/IGF-1 receptor, IL-1β, IL-6 in OHSC treated chronically with Aftin-5 or in a total brain from mice exposed to Aftin-5 at either 8 or 30 mg/Kg. […] Threshold cycles (Ct) of target gene and cyclophilin A (Ppia−control housekeeping gene) were recorded and gene expression was calculated as 2^−ΔΔCt(ΔΔCt=ΔCttreated−ΔCtcontrol, ΔCt=Cttarget−CtPpia). […]

CC[C@H](CO)Nc1nc(N(C)c2ccccc2)c2ncn(C(C)C)c2n1 [Aftin-5]
PSD95 mRNA (PSD95): transcriptional upregulation | cytokine-mRNA synthesis (TNF-α, IL-1β, IL-6) [1]: decreases
